In US20070219203A1, “Arylalkylamino-substituted quinazoline analogues” (Neurogen Corporation, priority 2004, published 2007):

Target: T1, human capsaicin receptor (Homo sapiens, UniProt Q8NER1)
T1 construct: expressed in transfected cells
Experiment: Calcium mobilization assay, antagonist activity (Example 6)
Format: cell-based
Conditions: Table I; 50% decrease in fluorescence response of cells expressing human capsaicin receptor exposed to capsaicin
Method: A cDNA encoding full length human capsaicin receptor (SEQ ID NO:1, 2 or 3 of U.S. Pat. No. 6,482,611) is subcloned in the plasmid pBK-CMV (Stratagene, La Jolla, Calif.) for recombinant expression in mammalian cells.
Human embryonic kidney (HEK293) cells are transfected with the pBK-CMV expression construct encoding the full length human capsaicin receptor using standard methods. The transfected cells are selected for two weeks in media containing G418 (400 μg/ml) to obtain a pool of stably transfected cells. Independent clones are isolated from this pool by limiting dilution to obtain clonal stable cell lines for use in subsequent experiments.
Cells transfected with expression plasmids (as described in Example 4) and thereby expressing human capsaicin receptor are seeded and grown to 70-90% confluency in FALCON black-walled, clear-bottomed 96-well plates (#3904, BECTON-DICKINSON, Franklin Lakes, N.J.). The culture medium is emptied from the 96 well plates and […] calcium sensitive dye (Molecular Probes, Eugene, Oreg.) is added to each well (dye solution: 1 mg […], 440 μL DMSO and 440 μl 20% pluronic acid in DMSO, diluted 1:250 in Krebs-Ringer HEPES (KRH) buffer (25 mM HEPES, 5 mM KCl, 0.96 mM NaH2PO4, 1 mM MgSO4, 2 mM CaCl2, 5 mM glucose, 1 mM probenecid, pH 7.4), 50 μl diluted solution per well). Plates are covered with aluminum foil and incubated at 37° C. for 1-2 hours in an environment containing 5% CO2. After the incubation, the dye is emptied from the plates, and the cells are washed once with KRH buffer, and resuspended in KRH buffer.
To measure the ability of a test compound to agonize or antagonize a calcium mobilization response in cells expressing capsaicin receptors to capsaicin or other vanilloid agonist, the EC50 of the agonist capsaicin is first determined. An additional 20 μl of KRH buffer and 1 μl DMSO is added to each well of cells, prepared as described above. 100 μl capsaicin in KRH buffer is automatically transferred by the FLIPR instrument to each well. Capsaicin-induced calcium mobilization is monitored using either FLUOROSKAN ASCENT (Labsystems; Franklin, Mass.) or FLIPR (fluorometric imaging plate reader system; Molecular Devices, Sunnyvale, Calif.) instruments. Data obtained between 30 and 60 seconds after agonist application are used to generate an 8-point concentration response curve, with final capsaicin concentrations of 1 nM to 3 μM. KALEIDAGRAPH software (Synergy Software, Reading, Pa.) is used to fit the data to the equation: y=a*(1/(1+(b/x)^c)) to determine the 50% excitatory concentration (EC50) for the response. In this equation, y is the maximum fluorescence signal, x is the concentration of the agonist or antagonist (in this case, capsaicin), a is the Emax, b corresponds to the EC50 value and c is the Hill coefficient. Determination of Agonist Activity
Test compounds are dissolved in DMSO, diluted in 20 μl KRH buffer so that the final concentration of test compounds in the assay well is between 1 μM and 5 μM, and added to cells prepared as described above. The 96 well plates containing prepared cells and test compounds are incubated in the dark, at room temperature for 0.5 to 6 hours. It is important that the incubation not continue beyond 6 hours. Just prior to determining the fluorescence response, 100 μl capsaicin in KRH buffer at twice the EC50 concentration determined as described above is automatically added by the FLIPR instrument to each well of the 96 well plate for a final sample volume of 200 μl and a final capsaicin concentration equal to the EC50. The final concentration of test compounds in the assay wells is between 1 μM and 5 μM. […] The concentration of antagonist required to provide a 50% decrease, relative to the response observed in the presence of capsaicin and without antagonist, is the IC50 for the antagonist, and is preferably below 1 micromolar, 100 nanomolar, 10 nanomolar or 1 nanomolar.

T1 sequence (Q8NER1 whole entry): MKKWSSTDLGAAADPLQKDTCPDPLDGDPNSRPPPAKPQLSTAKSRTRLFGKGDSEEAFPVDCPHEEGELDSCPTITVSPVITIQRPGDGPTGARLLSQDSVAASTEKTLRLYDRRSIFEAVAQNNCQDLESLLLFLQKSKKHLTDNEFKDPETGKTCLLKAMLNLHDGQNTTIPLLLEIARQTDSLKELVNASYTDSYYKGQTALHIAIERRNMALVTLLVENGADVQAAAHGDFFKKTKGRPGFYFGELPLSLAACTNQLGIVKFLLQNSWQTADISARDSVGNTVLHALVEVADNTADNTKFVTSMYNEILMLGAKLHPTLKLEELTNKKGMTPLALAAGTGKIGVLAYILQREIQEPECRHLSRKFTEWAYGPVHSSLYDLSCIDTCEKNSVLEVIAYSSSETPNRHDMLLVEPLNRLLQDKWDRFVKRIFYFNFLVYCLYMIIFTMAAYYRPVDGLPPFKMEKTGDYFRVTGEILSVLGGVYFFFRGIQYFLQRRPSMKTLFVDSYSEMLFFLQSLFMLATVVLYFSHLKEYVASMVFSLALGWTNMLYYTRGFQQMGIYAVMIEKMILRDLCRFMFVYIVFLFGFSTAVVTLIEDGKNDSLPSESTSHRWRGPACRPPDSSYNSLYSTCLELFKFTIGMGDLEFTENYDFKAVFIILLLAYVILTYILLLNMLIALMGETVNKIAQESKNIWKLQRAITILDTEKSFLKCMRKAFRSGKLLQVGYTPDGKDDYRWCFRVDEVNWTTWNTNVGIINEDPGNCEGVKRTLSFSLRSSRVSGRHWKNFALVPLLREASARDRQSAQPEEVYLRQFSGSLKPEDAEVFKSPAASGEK

| Compound | IC50 |
| --- | --- |
| CC(C)COCc1nc(NCCc2ccccc2Cl)c2ccc(-c3ncccc3C(F)(F)F)nc2n1 [Compound 33, N-[2-(2-chlorophenyl)ethyl]-2-(isobutoxymethyl)-7-[3-(trifluoromethyl)pyridin-2-yl]pyrido[2,3-d]pyrimidin-4-amine] | ≤ 1000 nM |
| CC(C)COCc1nc(NCCc2cccc(Cl)c2)c2ccc(-c3ncccc3C(F)(F)F)nc2n1 [Compound 34, N-[2-(3-chlorophenyl)ethyl]-2-(isobutoxymethyl)-7-[3-(trifluoromethyl)pyridin-2-yl]pyrido[2,3-d]pyrimidin-4-amine] | ≤ 1000 nM |
| CC(C)COCc1nc(NCCc2ccc(Cl)cc2)c2ccc(-c3ncccc3C(F)(F)F)nc2n1 [Compound 35, N-[2-(4-chlorophenyl)ethyl]-2-(isobutoxymethyl)-7-[3-(trifluoromethyl)pyridin-2-yl]pyrido[2,3-d]pyrimidin-4-amine] | ≤ 1000 nM |
| CC(C)COCc1nc(NCCc2cccc(F)c2)c2ccc(-c3ncccc3C(F)(F)F)nc2n1 [Compound 36, N-[2-(3-fluorophenyl)ethyl]-2-(isobutoxymethyl)-7-[3-(trifluoromethyl)pyridin-2-yl]pyrido[2,3-d]pyrimidin-4-amine] | ≤ 1000 nM |
| CC(C)COCc1nc(NCCc2ccc(F)cc2)c2ccc(-c3ncccc3C(F)(F)F)nc2n1 [Compound 37, N-[2-(4-fluorophenyl)ethyl]-2-(isobutoxymethyl)-7-[3-(trifluoromethyl)pyridin-2-yl]pyrido[2,3-d]pyrimidin-4-amine] | ≤ 1000 nM |
| CC(C)COCc1nc(NCCc2ccccc2C(F)(F)F)c2ccc(-c3ncccc3C(F)(F)F)nc2n1 [Compound 38, 2-(isobutoxymethyl)-N-{2-[2-(trifluoromethyl)phenyl]ethyl}-7-[3-(trifluoromethyl)pyridin-2-yl]pyrido[2,3-d]pyrimidin-4-amine] | ≤ 1000 nM |
| CC(C)COCc1nc(NCCc2cccc(C(F)(F)F)c2)c2ccc(-c3ncccc3C(F)(F)F)nc2n1 [Compound 39, 2-(isobutoxymethyl)-N-{2-[3-(trifluoromethyl)phenyl]ethYl}-7-[3-(trifluoromethyl)pyridin-2-yl]pyrido[2,3-d]pyrimidin-4-amine] | ≤ 1000 nM |
| CC(C)COCc1nc(NCCc2ccc(C(F)(F)F)cc2)c2ccc(-c3ncccc3C(F)(F)F)nc2n1 [Compound 40, 2-(isobutoxymethyl)-N-{2-[4-(trifluoromethyl)phenyl]ethyl}-7-[3-(trifluoromethyl)pyridin-2-yl]pyrido[2,3-d]pyrimidin-4-amine] | ≤ 1000 nM |
| COc1ccccc1CCNc1nc(COCC(C)C)nc2nc(-c3ncccc3C(F)(F)F)ccc12 [Compound 41, 2-(isobutoxymethyl)-N-[2-(2-methoxyphenyl)ethyl]-7-[3-(trifluoromethyl)pyridin-2-yl]pyrido[2,3-d]pyrimidin-4-amine] | ≤ 1000 nM |
| COc1cccc(CCNc2nc(COCC(C)C)nc3nc(-c4ncccc4C(F)(F)F)ccc23)c1 [Compound 42, 2-(isobutoxymethyl)-N-[2-(3-methoxyphenyl)ethyl]-7-[3-(trifluoromethyl)pyridin-2-yl]pyrido[2,3-d]pyrimidin-4-amine] | ≤ 1000 nM |
| COc1ccc(CCNc2nc(COCC(C)C)nc3nc(-c4ncccc4C(F)(F)F)ccc23)cc1 [Compound 43, 2-(isobutoxymethyl)-N-[2-(4-methoxyphenyl)ethyl]-7-[3-(trifluoromethyl)pyridin-2-yl]pyrido[2,3-d]pyrimidin-4-amine] | ≤ 1000 nM |
| CC(C)COCc1nc(NCCc2ccccc2F)c2ccc(-c3ncccc3Cl)nc2n1 [Compound 44, 7-(3-chloropyridin-2-yl)-N-[2-(2-fluorophenyl)ethyl]-2-(isobutoxymethyl)pyrido[2,3-d]pyrimidin-4-amine] | ≤ 1000 nM |
| CC(C)COCc1nc(NCCc2cccc(F)c2)c2ccc(-c3ncccc3Cl)nc2n1 [Compound 45] | ≤ 1000 nM |
| CC(C)COCc1nc(NCCc2ccc(F)cc2)c2ccc(-c3ncccc3Cl)nc2n1 [Compound 46, 7-(3-chloropyridin-2-yl)-N-[2-(4-fluorophenyl)ethyl]-2-(isobutoxymethyl)pyrido[2,3-d]pyrimidin-4-amine] | ≤ 1000 nM |
| CC(C)COCc1nc(NCCc2ccccc2Cl)c2ccc(-c3ncccc3Cl)nc2n1 [Compound 47, N-[2-(2-chlorophenyl)ethyl]-7-(3-chloropyridin-2-yl)-2-(isobutoxymethyl)pyrido[2,3-d]pyrimidin-4-amine] | ≤ 1000 nM |
| CC(C)COCc1nc(NCCc2cccc(Cl)c2)c2ccc(-c3ncccc3Cl)nc2n1 [Compound 48, N-[2-(3-chlorophenyl)ethyl]-7-(3-chloropyridin-2-yl)-2-(isobutoxymethyl)pyrido[2,3-d]pyrimidin-4-amine] | ≤ 1000 nM |
| CC(C)COCc1nc(NCCc2ccc(Cl)cc2)c2ccc(-c3ncccc3Cl)nc2n1 [Compound 49, N-[2-(4-chlorophenyl)ethyl]-7-(3-chloropyridin-2-yl)-2-(isobutoxymethyl)pyrido[2,3-d]pyrimidin-4-amine] | ≤ 1000 nM |
| CC(C)COCc1nc(NCCc2ccccc2C(F)(F)F)c2ccc(-c3ncccc3Cl)nc2n1 [Compound 50, 7-(3-chloropyridin-2-yl)-2-(isobutoxymethyl)-N-{2-[2-(trifluoromethyl)phenyl]ethyl}pyrido[2,3-d]pyrimidin-4-amine] | ≤ 1000 nM |
| CC(C)COCc1nc(NCCc2cccc(C(F)(F)F)c2)c2ccc(-c3ncccc3Cl)nc2n1 [Compound 51, 7-(3-chloropyridin-2-yl)-2-(isobutoxymethyl)-N-{2-[3-(trifluoromethyl)phenyl]ethyl}pyrido[2,3-d]pyrimidin-4-amine] | ≤ 1000 nM |
| CCOCc1nc(NCCc2ccccc2F)c2ccc(-c3ncccc3Cl)nc2n1 [Compound 52, 7-(3-chloropyridin-2-yl)-n-(ethoxymethyl)-N-[2-(2-fluorophenyl)ethyl]pyrido[2,3-d]pyrimidin-4-amine] | ≤ 1000 nM |
| CCOCc1nc(NCCc2ccc(F)cc2)c2ccc(-c3ncccc3Cl)nc2n1 [Compound 53, 7-(3-chloropyridin-2-yl)-2-(ethoxymethyl)-N-[2-(4-fluorophenyl)ethyl]pyrido[2,3-d]pyrimidin-4-amine] | ≤ 1000 nM |
| CCOCc1nc(NCCc2ccccc2Cl)c2ccc(-c3ncccc3Cl)nc2n1 [Compound 54, N-[2-(2-chlorophenyl)ethyl]-7-(3-chloropyridin-2-yl)-2-(ethoxymethyl)pyrido[2,3-d]pyrimidin-4-amine] | ≤ 1000 nM |
| CCOCc1nc(NCCc2cccc(Cl)c2)c2ccc(-c3ncccc3Cl)nc2n1 [Compound 55, N-[2-(3-chlorophenyl)ethyl]-7-(3-chloropyridin-2-yl)-2-(ethoxymethyl)pyrido[2,3-d]pyrimidin-4-amine] | ≤ 1000 nM |
| CCOCc1nc(NCCc2ccccc2C(F)(F)F)c2ccc(-c3ncccc3Cl)nc2n1 [Compound 56, 7-(3-chloropyridin-2-yl)-2-(ethoxymethyl)-N-{2-[2-(trifluoromethyl)phenyl]ethyl}pyrido [2,3-d]pyrimidin-4-amine] | ≤ 1000 nM |
| CCOCc1nc(NCCc2cccc(OC)c2)c2ccc(-c3ncccc3Cl)nc2n1 [Compound 57, 7-(3-chloropyridin-2-yl)-2-(ethoxymethyl)-N-[2-(3-methoxyphenyl)ethyl]pyrido[2,3-d]pyrimidin-4-amine] | ≤ 1000 nM |
| Cc1ccccc1CCNc1nc(COCC(C)C)nc2nc(-c3ncccc3Cl)ccc12 [Compound 58, 7-(3-chloropyridin-2-yl)-2-(isobutoxymethyl)-N-[2-(2-methylphenyl)ethyl]pyrido[2,3-d]pyrimidin-4-amine] | ≤ 1000 nM |
